Measured values reported in patent US11478461B2, “[1.1.1] bicyclo compounds as indoleamine 2,3-dioxygenase inhibitors” (Merck Sharp & Dohme Corp., priority 2018, dated 2022).

molecular target: IDO1 (Homo sapiens, UniProt P14902); experiment: IDO1 Cellular Assay in Hela Cells Stimulated with IFNγ; assay type: cell-based; conditions: IFNγ 100 ng/mL, 300 uM L-tryptophan, about 48 hours, fluorescence readout, read-out: IDO1 HELA Cell Assay, IC50
Experimental: Biological Assays IDO1 Cellular Assay in Hela Cells Stimulated with IFNγ
Hela cells were cultured in complete Hela culture medium ([…], 10% heat-inactivated fetal bovine serum) and expanded to about 1×10^9 cells. The cells were then collected and frozen down at 10×10^6 cells/vial in 1 mL frozen medium (90% complete Hela culture medium, 10% DMSO).
Compounds to be tested were serially diluted in ten 3-fold steps in DMSO starting from 10 mM DMSO stocks in Echo low volume plate(s). Compound dilutions or DMSO alone were then dispensed from the dilution plate(s) into Greiner black 384-well assay plate(s) (catalog #781086, 50 nL/well) using an Echo 550 acoustic liquid handler (Labcyte).
Frozen Hela cells were thawed and transferred into Hela assay medium (99% complete Hela culture medium, 1% Pen/Strep) with 20 mL medium/vial of cells. The cells were spun down at 250 g in a table top centrifuge for 5 min and suspended in same volume of Hela assay medium. […] Sterile L-tryptophan were added to the cells with final concentration of 300 uM L-tryptophan. A small aliquot (2 mL/plate) of Hela cells were set aside and were not treated with IFNγ, to serve as the Max-E control. The rest of Hela cells were added with sterile IFNγ (Cat #285-IF, R & D systems) with a final concentration of 100 ng/mL.
Hela cells with and without IFNγ were dispensed to the respective wells of 384-well assay plates containing the compounds. The plates were incubated for about 48 hours at a 37° C., 5% CO2 incubator. Afterwards, 12 μL of 0.5 M methyl isonipecotate in dimethyl sulfoxide were added into each well and the plates were sealed and incubated at 37° C. without CO2 overnight. The plates were centrifuged for 1 min at 200×g. The resulting fluorescence was measured in a Spectramax plate reader (Molecular Devices) with a 400 nm excitation filter and a 510 nm emission filter.
Potencies were calculated by […] least squares fit to the four parameter logistic IC50 equation.

Sequence of IDO1 (P14902 whole entry): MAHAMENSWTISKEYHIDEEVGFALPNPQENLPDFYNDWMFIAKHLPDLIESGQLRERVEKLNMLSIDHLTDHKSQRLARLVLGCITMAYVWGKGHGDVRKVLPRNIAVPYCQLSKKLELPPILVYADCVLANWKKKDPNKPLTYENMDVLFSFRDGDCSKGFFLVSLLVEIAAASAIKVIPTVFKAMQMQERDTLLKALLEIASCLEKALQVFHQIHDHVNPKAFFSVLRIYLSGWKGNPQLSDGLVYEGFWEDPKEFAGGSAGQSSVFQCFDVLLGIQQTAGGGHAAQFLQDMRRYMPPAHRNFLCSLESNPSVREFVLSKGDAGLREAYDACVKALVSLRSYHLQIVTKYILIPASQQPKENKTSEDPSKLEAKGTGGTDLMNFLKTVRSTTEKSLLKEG

Compound	IC50 [nM]
CC(C(=O)Nc1ccc(F)cc1)C12CC(NC(=O)c3cccn4nncc34)(C1)C2 (stereo not drawn) [Example 143, N-[3-[2-(4-fluoroanilino)-1-methyl-2-oxo-ethyl]-1-bicyclo[1.1.1]pentanyl]triazolo[1,5-a]pyridin-1-ium-4-carboxamide]	448
Cc1cc(C(=O)NC23CC([C@H](C)C(=O)Nc4ccc(F)cc4)(C2)C3)ccc1F [Example 54, 4-fluoro-N-[3-[(1S)-2-(4-fluoroanilino)-1-methyl-2-oxo-ethyl]-1-bicyclo[1.1.1]pentanyl]-3-methyl-benzamide]	187
CC(C(=O)Nc1ccc(F)cc1)C12CC(NC(=O)c3cc(C4CC4)on3)(C1)C2 (stereo not drawn) [Example 120, 5-cyclopropyl-N-[3-[2-(4-fluoroanilino)-1-methyl-2-oxo-ethyl]-1-bicyclo[1.1.1]pentanyl]isoxazole-3-carboxamide]	125
C[C@@H](C(=O)Nc1ccc(F)cc1)C12CC(NC(=O)c3cccc(Cl)n3)(C1)C2 [Example 33, (R)-6-Chloro-N-(3-(1-((4-fluorophenyl)amino)-1-oxopropan-2-yl)bicyclo[1.1.1]pentan-1-yl)picolinamide]	7180
CC(C(=O)Nc1ccc(F)cc1)C12CC(NC(=O)c3ncccc3F)(C1)C2 (stereo not drawn) [Example 137, 3-fluoro-N-[3-[2-(4-fluoroanilino)-1-methyl-2-oxo-ethyl]-1-bicyclo[1.1.1]pentanyl]pyridin-1-ium-2-carboxamide]	387
COc1cc(C(=O)NC23CC(C(C)C(=O)Nc4ccc(F)cc4)(C2)C3)ccn1 (stereo not drawn) [Example 125, N-[3-[2-(4-fluoroanilino)-1-methyl-2-oxo-ethyl]-1-bicyclo[1.1.1]pentanyl]-2-methoxy-pyridin-1-ium-4-carboxamide]	178
C[C@H](C(=O)Nc1ccc(F)c(Cl)c1)C12CC(NC(=O)c3ccc(Cl)c(Cl)c3)(C1)C2 [Example 96, (S)-3,4-dichloro-N-(3-(1-((3-chloro-4-fluorophenyl)amino)-1-oxopropan-2-yl)bicyclo[1.1.1]pentan-1-yl)benzamide]	78.4
C[C@H](C(=O)Nc1cccc(C(F)(F)F)c1)C12CC(NC(=O)c3ccc(Cl)c(Cl)c3)(C1)C2 [Example 99, (S)-3,4-dichloro-N-(3-(1-oxo-1-((3-(trifluoromethyl)phenyl)amino)propan-2-yl)bicyclo[1.1.1]pentan-1-yl)benzamide]	111
C[C@H](C(=O)Nc1ccc(F)cc1)C12CC(NC(=O)Nc3cccc4ccccc34)(C1)C2 [Example 86, (S)-N-(4-fluorophenyl)-2-(3-(3-(naphthalen-1-yl)ureido)bicyclo[1.1.1]pentan-1-yl)propanamide]	84.8
CC(C(=O)Nc1ccc(F)cc1)C12CC(NC(=O)Cc3ccccc3C(F)(F)F)(C1)C2 (stereo not drawn) [Example 128, N-(4-fluorophenyl)-2-[3-[[2-[2-(trifluoromethyl)phenyl]acetyl]amino]-1-bicyclo[1.1.1]pentanyl]propanamide]	194
CC(C(=O)Nc1ccc(F)cc1)C12CC(NC(=O)c3cccc4ccnn34)(C1)C2 (stereo not drawn) [Example 126, N-[3-[2-(4-fluoroanilino)-1-methyl-2-oxo-ethyl]-1-bicyclo[1.1.1]pentanyl]pyrazolo[1,5-a]pyridin-1-ium-7-carboxamide]	180
CC(C(=O)Nc1ccc(Cl)cc1)C12CC(NC(=O)c3cccc(C#N)c3)(C1)C2 (single isomer, unassigned) [Example 12, N-(3-(1-((4-chlorophenyl)amino)-1-oxopropan-2-yl)bicyclo[1.1.1]pentan-1-yl)-3-cyanobenzamide]	97.9

These reach a lower IC50. Values come first.

IC50 [nM]	Compound
28.7	CC(NC(=O)c1ccc(F)cc1)C12CC(NC(=O)c3ccc(Cl)c(Cl)c3)(C1)C2 (single isomer, unassigned) [Example 22, 3,4-Dichloro-N-(3-(1-(4-fluorobenzamido)ethyl)bicyclo [1.1.1]pentan-1-yl) Benzamide]
47.8	N#Cc1cccc(C(=O)NC23CC(C4(C(=O)Nc5ccc(F)cc5)CCC4)(C2)C3)c1 [Example 4, 3-cyano-N-(3-(1-((4-fluorophenyl)carbamoyl)cyclobutyl)bicyclo[1.1.1]pentan-1-yl)benzamide]
11	Cc1ccc(C(=O)NC23CC([C@H](C)C(=O)Nc4ccc(F)cc4)(C2)C3)nc1Cl [Example 61, 6-chloro-N-[3-[(1S)-2-(4-fluoroanilino)-1-methyl-2-oxo-ethyl]-1-bicyclo[1.1.1]pentanyl]-5-methyl-pyridin-1-ium-2-carboxamide]
73.5	CCc1ccnc(C(=O)NC23CC(C(C)C(=O)Nc4ccc(F)cc4)(C2)C3)c1 (stereo not drawn) [Example 117, 4-ethyl-N-[3-[2-(4-fluoroanilino)-1-methyl-2-oxo-ethyl]-1-bicyclo[1.1.1]pentanyl]pyridin-1-ium-2-carboxamide]
36.4	CC(C(=O)Nc1ccc(Cl)c(F)c1)C12CC(NC(=O)c3cccc(Cl)c3)(C1)C2 (single isomer, unassigned) [Example 10, 3-chloro-N-(3-(1-((4-chloro-3-fluorophenyl)amino)-1-oxopropan-2-yl)bicyclo[1.1.1]pentan-1-yl)benzamide]
7.78	C[C@H](C(=O)Nc1cncc(Cl)c1)C12CC(NC(=O)c3ccc(Cl)c(Cl)c3)(C1)C2 [Example 94, (S)-3-chloro-5-(2-(3-(3,4-dichlorobenzamido)bicyclo[1.1.1]pentan-1-yl)propanamido)pyridin-1-ium 2,2,2-trifluoroacetate]
47.7	Cc1nc(C(=O)NC23CC(C4(NC(=O)c5ccc(F)cc5)CC4)(C2)C3)no1 [Example 30, N-(3-(1-(4-fluorobenzamido)cyclopropyl)bicyclo[1.1.1]pentan-1-yl)-5-methyl-1,2,4-oxadiazole-3-carboxamide]
26.9	C[C@H](C(=O)Nc1ccc(F)cc1)C12CC(NC(=O)c3ccc(Cl)c(Cl)n3)(C1)C2 [Example 149, (S)-5,6-dichloro-N-(3-(1-((4-fluorophenyl)amino)-1-oxopropan-2-yl)bicyclo[1.1.1]pentan-1-yl)picolinamide]
13.9	C[C@H](C(=O)Nc1ccc(F)cc1)C12CC(NC(=O)c3cncc(C(F)(F)F)c3)(C1)C2 [Example 68, N-[3-[(1S)-2-(4-fluoroanilino)-1-methyl-2-oxo-ethyl]-1-bicyclo[1.1.1]pentanyl]-5-(trifluoromethyl)pyridin-1-ium-3-carboxamide]
11.4	C[C@H](C(=O)Nc1ccc(F)cc1)C12CC(NC(=O)c3cnc(Cl)c(Cl)c3)(C1)C2 [Example 63, 5,6-dichloro-N-[3-[(1S)-2-(4-fluoroanilino)-1-methyl-2-oxo-ethyl]-1-bicyclo[1.1.1]pentanyl]pyridin-1-ium-3-carboxamide]
30.9	C[C@H](C(=O)Nc1ccc(F)cc1)C12CC(NC(=O)c3cccc(C(F)(F)F)c3)(C1)C2 [Example 62, N-[3-[(1S)-2-(4-fluoroanilino)-1-methyl-2-oxo-ethyl]-1-bicyclo[1.1.1]pentanyl]-3-(trifluoromethyl)benzamide]
35.8	O=C(NC12CC(C3(C(=O)Nc4ccc(F)c(F)c4)COC3)(C1)C2)c1cccc(Cl)c1 [Example 105, 3-(3-(3-Chlorobenzamido)bicyclo[1.1.1]pentan-1-yl)-N-(3,4-difluorophenyl)oxetane-3-carboxamide]
